Common to all, as to experiment: Growth inhibitory activity of compounds on BaF3 cell lines stably transfected with kinase (MTS, 48 h)
Common to all, as to format: cell-based

For assay [1], the target named is T1, various mutants of kinase EGFR (BaF3 cell lines stably transfected with kinase) (Homo sapiens, UniProt P00533, T790M/C797S, form not given).
T1 construct: other: BaF3 cells stably transfected with EGFR Δ19Del/T790M/C797S; MTS, 48; other: BaF3 cell line stably transfected with EGFR Δ19Del/T790M/C7
Particulars: BaF3 cell line stably transfected with EGFR Δ19Del/T790M/C797S, read-out: Δ19Del/T790M/ C797S growth inhibitory activity IC50. The gist of the method:
(§1)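 BaF3 cells stably transfected with EGFR mutants were exposed for 48 h at 37°C to 8 compound concentrations (top 10 µM, 1/3 dilutions, 0.1% DMSO). Growth was read by MTS at 490 nm after 1-4 h, in duplicate; IC50 was derived from inhibition rates versus DMSO control.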

Assay [2] deals with T2, various mutants of kinase EGFR (BaF3 cell lines stably transfected with kinase) (Homo sapiens, UniProt P00533, T790M, form not given).
T2 construct: other: BaF3 cells stably transfected with EGFR Δ19Del/T790M; MTS, 48 h; other: BaF3 cell line stably transfected with EGFR Δ19Del/T790M; MTS, 48
T2 sequence (P00533 with tags, fused parts or gaps DEL746-750/T790M, form open): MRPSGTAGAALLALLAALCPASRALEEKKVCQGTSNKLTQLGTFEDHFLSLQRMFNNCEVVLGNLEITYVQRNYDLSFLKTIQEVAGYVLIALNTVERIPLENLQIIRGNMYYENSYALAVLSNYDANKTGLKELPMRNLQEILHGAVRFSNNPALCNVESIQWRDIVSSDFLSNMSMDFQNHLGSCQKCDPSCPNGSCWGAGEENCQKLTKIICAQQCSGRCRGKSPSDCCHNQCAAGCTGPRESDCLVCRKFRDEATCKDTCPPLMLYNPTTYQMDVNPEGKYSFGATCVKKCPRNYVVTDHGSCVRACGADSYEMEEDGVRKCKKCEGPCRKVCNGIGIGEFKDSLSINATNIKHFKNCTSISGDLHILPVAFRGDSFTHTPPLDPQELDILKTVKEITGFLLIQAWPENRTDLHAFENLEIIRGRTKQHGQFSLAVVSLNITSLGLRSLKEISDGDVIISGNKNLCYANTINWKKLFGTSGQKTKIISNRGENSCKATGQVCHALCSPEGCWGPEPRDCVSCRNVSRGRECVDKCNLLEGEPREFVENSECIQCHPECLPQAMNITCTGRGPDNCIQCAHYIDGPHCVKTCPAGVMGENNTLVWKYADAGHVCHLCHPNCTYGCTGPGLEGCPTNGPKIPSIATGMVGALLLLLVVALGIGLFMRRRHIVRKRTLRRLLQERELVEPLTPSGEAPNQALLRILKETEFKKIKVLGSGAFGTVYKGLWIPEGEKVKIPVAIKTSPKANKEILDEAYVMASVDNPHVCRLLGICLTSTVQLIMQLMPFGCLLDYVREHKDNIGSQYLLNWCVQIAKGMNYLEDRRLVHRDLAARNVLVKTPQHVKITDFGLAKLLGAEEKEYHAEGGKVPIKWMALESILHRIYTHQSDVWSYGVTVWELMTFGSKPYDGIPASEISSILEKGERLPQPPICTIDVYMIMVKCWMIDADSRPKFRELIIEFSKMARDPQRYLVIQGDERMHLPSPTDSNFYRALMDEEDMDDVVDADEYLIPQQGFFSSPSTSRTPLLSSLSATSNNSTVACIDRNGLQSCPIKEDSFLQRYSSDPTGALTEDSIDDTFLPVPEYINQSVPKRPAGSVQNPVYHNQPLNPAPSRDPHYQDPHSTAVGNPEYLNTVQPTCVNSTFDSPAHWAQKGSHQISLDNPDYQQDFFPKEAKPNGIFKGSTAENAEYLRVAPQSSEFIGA
Conditions: BaF3 cell line stably transfected with EGFR Δ19Del/T790M, read-out: Δ19Del/ T790M growth inhibitory activity IC50. The gist of the method:
as §1

In assay [3] the target is T3, various mutants of kinase EGFR (BaF3 cell lines stably transfected with kinase) (Homo sapiens, UniProt P00533, C797S/L858R/T790M).
T3 construct: expressed in transfected cells; host or cells: BaF3
Conditions: BaF3 cell line stably transfected with EGFR L858R/T790M/C797S, read-out: L858R/T790M/ C797S growth inhibitory activity IC50. An outline of the steps: as §1

The target of assay [4] is T4, various mutants of kinase EGFR (BaF3 cell lines stably transfected with kinase) (Homo sapiens, UniProt P00533, L858R).
T4 construct: expressed in transfected cells; host or cells: BaF3
T4 sequence (P00533 25-1210 L858R): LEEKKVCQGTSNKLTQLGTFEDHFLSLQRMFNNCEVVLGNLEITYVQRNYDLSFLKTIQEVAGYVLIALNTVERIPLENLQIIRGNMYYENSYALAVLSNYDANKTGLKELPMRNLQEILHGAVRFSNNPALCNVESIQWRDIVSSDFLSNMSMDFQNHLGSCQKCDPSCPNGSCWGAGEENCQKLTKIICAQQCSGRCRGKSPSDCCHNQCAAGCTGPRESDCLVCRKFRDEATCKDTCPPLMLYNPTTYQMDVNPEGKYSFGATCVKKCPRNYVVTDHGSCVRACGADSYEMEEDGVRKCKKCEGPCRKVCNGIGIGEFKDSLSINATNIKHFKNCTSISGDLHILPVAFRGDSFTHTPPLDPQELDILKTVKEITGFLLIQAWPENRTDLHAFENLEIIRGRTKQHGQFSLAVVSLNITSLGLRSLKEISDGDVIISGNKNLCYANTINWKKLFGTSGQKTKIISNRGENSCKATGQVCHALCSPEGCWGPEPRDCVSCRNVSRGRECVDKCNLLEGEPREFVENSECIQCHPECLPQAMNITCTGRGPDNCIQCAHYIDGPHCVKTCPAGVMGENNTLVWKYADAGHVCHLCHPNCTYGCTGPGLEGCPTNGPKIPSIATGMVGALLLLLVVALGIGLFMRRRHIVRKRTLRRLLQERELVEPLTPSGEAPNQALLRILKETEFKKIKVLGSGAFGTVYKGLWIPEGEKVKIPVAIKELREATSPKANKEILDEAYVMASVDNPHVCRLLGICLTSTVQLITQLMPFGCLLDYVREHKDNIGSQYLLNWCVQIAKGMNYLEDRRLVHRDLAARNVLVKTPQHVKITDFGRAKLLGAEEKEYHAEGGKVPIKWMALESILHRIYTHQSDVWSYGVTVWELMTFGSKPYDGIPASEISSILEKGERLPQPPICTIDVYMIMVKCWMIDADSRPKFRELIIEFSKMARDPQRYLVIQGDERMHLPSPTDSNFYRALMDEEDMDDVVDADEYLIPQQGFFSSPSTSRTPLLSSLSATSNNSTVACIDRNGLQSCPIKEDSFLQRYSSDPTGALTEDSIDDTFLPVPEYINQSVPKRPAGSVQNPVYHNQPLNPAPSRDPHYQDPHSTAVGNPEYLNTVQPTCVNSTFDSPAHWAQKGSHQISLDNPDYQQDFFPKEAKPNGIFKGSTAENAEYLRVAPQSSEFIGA
Conditions: BaF3 cell line stably transfected with EGFR L858R, read-out: L858R growth inhibitory activity IC50. An outline of the steps:
as §1

Assay [5] has as its target T5, various mutants of kinase EGFR (BaF3 cell lines stably transfected with kinase) (Homo sapiens, UniProt P00533, L858R/T790M).
T5 construct: expressed in transfected cells; host or cells: BaF3
Particulars: BaF3 cell line stably transfected with EGFR L858R/T790M, read-out: L858R/ T790M growth inhibitory activity IC50. The gist of the method: as §1

In assay [6] the target is T6, various mutants of kinase EGFR (BaF3 cell lines stably transfected with kinase) (Homo sapiens, UniProt P00533).
T6 construct: other: BaF3 cells stably transfected with EGFR Δ19Del; MTS, 48 h; other: BaF3 cell line stably transfected with EGFR Δ19Del
T6 sequence (P00533 with tags, fused parts or gaps DEL746-750): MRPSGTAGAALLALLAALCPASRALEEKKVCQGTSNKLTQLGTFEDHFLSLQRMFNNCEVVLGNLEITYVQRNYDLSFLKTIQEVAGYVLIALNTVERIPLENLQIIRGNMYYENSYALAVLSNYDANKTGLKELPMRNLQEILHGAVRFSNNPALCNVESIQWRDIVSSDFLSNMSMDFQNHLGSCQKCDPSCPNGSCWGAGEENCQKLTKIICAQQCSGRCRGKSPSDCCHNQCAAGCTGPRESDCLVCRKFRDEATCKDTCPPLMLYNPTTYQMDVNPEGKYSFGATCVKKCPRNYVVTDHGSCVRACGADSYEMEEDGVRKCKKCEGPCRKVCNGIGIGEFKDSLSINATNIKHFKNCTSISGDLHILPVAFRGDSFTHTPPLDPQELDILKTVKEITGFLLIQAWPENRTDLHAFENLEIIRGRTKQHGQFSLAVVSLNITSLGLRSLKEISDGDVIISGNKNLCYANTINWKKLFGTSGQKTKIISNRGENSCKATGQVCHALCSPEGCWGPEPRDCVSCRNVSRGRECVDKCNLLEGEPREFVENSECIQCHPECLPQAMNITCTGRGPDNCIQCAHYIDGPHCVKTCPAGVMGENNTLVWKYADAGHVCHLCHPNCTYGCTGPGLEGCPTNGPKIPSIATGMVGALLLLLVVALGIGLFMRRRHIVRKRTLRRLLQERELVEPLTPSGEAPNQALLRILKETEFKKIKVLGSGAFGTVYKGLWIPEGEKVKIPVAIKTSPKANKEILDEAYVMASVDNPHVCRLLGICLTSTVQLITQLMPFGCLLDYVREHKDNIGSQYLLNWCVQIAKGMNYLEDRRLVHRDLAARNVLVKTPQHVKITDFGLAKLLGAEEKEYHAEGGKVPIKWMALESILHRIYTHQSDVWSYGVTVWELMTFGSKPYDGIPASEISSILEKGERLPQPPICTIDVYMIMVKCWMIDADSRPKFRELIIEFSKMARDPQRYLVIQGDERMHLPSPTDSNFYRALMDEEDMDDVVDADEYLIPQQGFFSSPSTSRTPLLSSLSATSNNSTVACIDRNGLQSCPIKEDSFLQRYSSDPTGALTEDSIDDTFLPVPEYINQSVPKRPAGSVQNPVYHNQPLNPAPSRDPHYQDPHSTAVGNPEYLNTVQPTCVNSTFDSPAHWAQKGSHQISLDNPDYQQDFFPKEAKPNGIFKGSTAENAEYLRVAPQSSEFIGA
Particulars: BaF3 cell line stably transfected with EGFR Δ19Del, read-out: Δ19Del growth inhibitory activity IC50. An outline of the steps: as §1

Structures are written as SMILES.

T5 sequence (P00533 25-1210 T790M/L858R): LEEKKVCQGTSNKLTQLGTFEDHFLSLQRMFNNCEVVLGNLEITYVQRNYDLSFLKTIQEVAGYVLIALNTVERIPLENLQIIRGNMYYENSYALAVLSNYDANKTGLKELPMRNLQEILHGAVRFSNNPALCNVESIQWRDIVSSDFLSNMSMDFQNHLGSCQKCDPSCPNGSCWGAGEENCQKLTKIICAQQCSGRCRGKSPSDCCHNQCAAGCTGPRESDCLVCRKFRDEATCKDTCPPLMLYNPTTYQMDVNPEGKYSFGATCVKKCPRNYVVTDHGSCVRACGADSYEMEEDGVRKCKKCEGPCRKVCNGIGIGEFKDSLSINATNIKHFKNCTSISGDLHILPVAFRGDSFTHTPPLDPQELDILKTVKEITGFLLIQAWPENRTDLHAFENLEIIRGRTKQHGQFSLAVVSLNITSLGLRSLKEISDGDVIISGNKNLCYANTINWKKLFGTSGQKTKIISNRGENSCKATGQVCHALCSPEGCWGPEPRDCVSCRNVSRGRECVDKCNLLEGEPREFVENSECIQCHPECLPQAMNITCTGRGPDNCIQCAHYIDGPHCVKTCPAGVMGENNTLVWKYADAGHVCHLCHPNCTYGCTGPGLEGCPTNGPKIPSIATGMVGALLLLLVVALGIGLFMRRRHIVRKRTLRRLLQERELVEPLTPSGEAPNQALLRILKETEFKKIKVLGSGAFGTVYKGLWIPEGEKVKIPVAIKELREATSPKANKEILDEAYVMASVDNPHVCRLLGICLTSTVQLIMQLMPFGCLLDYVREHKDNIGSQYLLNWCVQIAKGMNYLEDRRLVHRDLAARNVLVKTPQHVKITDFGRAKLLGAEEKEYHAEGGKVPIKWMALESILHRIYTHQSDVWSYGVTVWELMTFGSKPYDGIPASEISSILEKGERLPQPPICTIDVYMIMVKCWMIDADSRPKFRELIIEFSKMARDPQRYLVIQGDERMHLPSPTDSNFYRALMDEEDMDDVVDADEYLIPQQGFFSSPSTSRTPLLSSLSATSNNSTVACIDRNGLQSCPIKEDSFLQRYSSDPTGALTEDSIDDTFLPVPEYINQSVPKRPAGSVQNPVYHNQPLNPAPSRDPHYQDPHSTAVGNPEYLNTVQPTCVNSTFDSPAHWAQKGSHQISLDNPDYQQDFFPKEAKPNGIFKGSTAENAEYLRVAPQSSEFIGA

`CN1CCN(C2CCN(c3c(F)cc(Nc4ncc(Br)c(Nc5ccc6nccnc6c5NS(C)(=O)=O)n4)cc3F)CC2)CC1` [Compound I-360]: the IC50 in assay [1] is 50 to 500 nM; in assay [2], 50 to 500 nM; in assay [3], 50 to 500 nM; in assay [4], ≤ 50 nM; in assay [5] it was ≤ 50 nM; in assay [6], 50 to 500 nM.
Take `CCc1cc(Nc2ncc(Br)c(Nc3ccc4nccnc4c3NS(C)(=O)=O)n2)c(OC)cc1C(=O)N1CCC(N2CCN(C)CC2)CC1` [Compound I-361]: the IC50 lay within 500 to 2500 nM in assay [1]; 500 to 2500 nM in assay [2]; 500 to 2500 nM in assay [3]; 500 to 2500 nM in assay [4]; 50 to 500 nM in assay [5]; 500 to 2500 nM in assay [6].
Take `COc1ccc(N2CCC(O)CC2)cc1Nc1ncc(C)c(Nc2ccc3nccnc3c2N(C)S(C)(=O)=O)n1` [Compound I-362]: the IC50 is ≤ 50 nM in assay [1]; 50 to 500 nM in assay [2]; ≤ 50 nM in assay [3]; ≤ 50 nM in assay [4]; 50 to 500 nM in assay [5]; 50 to 500 nM in assay [6].
For `CCc1cnc(Nc2cc(N3CCC(O)CC3)ccc2OC)nc1Nc1ccc2nccnc2c1N(C)S(C)(=O)=O` [Compound I-363], the IC50 in assay [1] was ≤ 50 nM; in assay [2] it was 50 to 500 nM; in assay [3], ≤ 50 nM; in assay [4], ≤ 50 nM; in assay [5], ≤ 50 nM; in assay [6], ≤ 50 nM.
For `COc1ccc(N2CCC(O)CC2)cc1Nc1ncc(C(C)C)c(Nc2ccc3nccnc3c2N(C)S(C)(=O)=O)n1` [Compound I-364], the IC50 in assay [1] was 50 to 500 nM; in assay [2], ≤ 50 nM; in assay [3] it was ≤ 50 nM; in assay [4] it was 50 to 500 nM; in assay [5] it was 50 to 500 nM; in assay [6], ≤ 50 nM.
Regarding `COc1ccc(N2CCC(O)CC2)cc1Nc1ncc(C2CC2)c(Nc2ccc3nccnc3c2N(C)S(C)(=O)=O)n1` [Compound I-365], the IC50 was ≤ 50 nM in assay [1]; 50 to 500 nM in assay [2]; ≤ 50 nM in assay [3]; ≤ 50 nM in assay [4]; ≤ 50 nM in assay [5]; 50 to 500 nM in assay [6].
With `COc1ccc(N2CCC(O)CC2)cc1Nc1ncc(OC)c(Nc2ccc3nccnc3c2N(C)S(C)(=O)=O)n1` [Compound I-366], the IC50 is ≤ 50 nM in assay [1]; 50 to 500 nM in assay [2]; ≤ 50 nM in assay [3]; 50 to 500 nM in assay [4]; ≤ 50 nM in assay [5]; 50 to 500 nM in assay [6].
Regarding `COc1ccc(N2CCC(O)CC2)cc1Nc1ncc(F)c(Nc2ccc3nccnc3c2N(C)S(C)(=O)=O)n1` [Compound I-367], the IC50 in assay [1] is 50 to 500 nM; in assay [2] it was 500 to 2500 nM; in assay [3], 50 to 500 nM; in assay [4], 500 to 2500 nM; in assay [5] it was 500 to 2500 nM; in assay [6], 500 to 2500 nM.
Turning to `COc1ccc(N2CCC(O)CC2)cc1Nc1ncc(Cl)c(Nc2ccc3nccnc3c2N(C)S(C)(=O)=O)n1` [Compound I-368], the IC50 was ≤ 50 nM in assay [1]; 50 to 500 nM in assay [2]; ≤ 50 nM in assay [3]; 50 to 500 nM in assay [4]; ≤ 50 nM in assay [5]; 50 to 500 nM in assay [6].
As for `COc1ccc(N2CCC(O)CC2)cc1Nc1ncc(C(F)(F)F)c(Nc2ccc3nccnc3c2N(C)S(C)(=O)=O)n1` [Compound I-369], the IC50 in assay [1] is ≤ 50 nM; in assay [2], ≤ 50 nM; in assay [3], ≤ 50 nM; in assay [4] it was 50 to 500 nM; in assay [5], ≤ 50 nM; in assay [6], 50 to 500 nM.
In the case of `COc1ccc(N2CCC(O)CC2)cc1Nc1ncc(Cl)c(Nc2ccc3nccnc3c2N(C)S(=O)(=O)C(F)(F)F)n1` [Compound I-370], the IC50 in assay [1] was ≤ 50 nM; in assay [2], 500 to 2500 nM; in assay [3] it was ≤ 50 nM; in assay [4] it was 50 to 500 nM; in assay [5], 50 to 500 nM; in assay [6], 500 to 2500 nM.
For the compound `COc1ccc(N2CCC(O)CC2)cc1Nc1ncc(Br)c(Nc2ccc3nccnc3c2N(C)S(=O)(=O)C(F)(F)F)n1` [Compound I-371], the IC50 is ≤ 50 nM in assay [1]; 50 to 500 nM in assay [2]; ≤ 50 nM in assay [3]; 50 to 500 nM in assay [4]; 50 to 500 nM in assay [5]; 500 to 2500 nM in assay [6].
For `CCS(=O)(=O)N(C)c1c(Nc2nc(Nc3cc(N4CCC(O)CC4)ccc3OC)ncc2Cl)ccc2nccnc12` [Compound I-372], the IC50 is ≤ 50 nM in assay [1]; 50 to 500 nM in assay [2]; ≤ 50 nM in assay [3]; ≤ 50 nM in assay [4]; ≤ 50 nM in assay [5]; 50 to 500 nM in assay [6].
In the case of `COc1ccc(N2CCC(O)CC2)cc1Nc1ncc(F)c(Nc2ccc3nccnc3c2N(C)S(=O)(=O)C2CC2)n1` [Compound I-373], the IC50 in assay [1] fell in the range of 50 to 500 nM; in assay [2], 500 to 2500 nM; in assay [3] it was 500 to 2500 nM; in assay [4], 50 to 500 nM; in assay [5], 500 to 2500 nM; in assay [6], 500 to 2500 nM.
Consider `COc1ccc(N2CCC(O)CC2)cc1Nc1ncc(Cl)c(Nc2ccc3nccnc3c2N(C)S(=O)(=O)C2CC2)n1` [Compound I-374], for which the IC50 in assay [1] is ≤ 50 nM; in assay [2] it was 50 to 500 nM; in assay [3] it was ≤ 50 nM; in assay [4] it was 50 to 500 nM; in assay [5], 50 to 500 nM; in assay [6] it was 50 to 500 nM.
Take `COc1ccc(N2CCC(O)CC2)cc1Nc1ncc(Br)c(Nc2ccc3nccnc3c2N(C)S(=O)(=O)C2CC2)n1` [Compound I-375]: the IC50 in assay [1], in assay [2], in assay [3], in assay [4], in assay [5] and in assay [6] was ≤ 50 nM throughout.
With `COc1ccc(N2CCC(O)CC2)cc1Nc1ncc(Br)c(Nc2ccc3nccnc3c2N(C)S(=O)(=O)C(C)C)n1` [Compound I-376], the IC50 was ≤ 50 nM in assay [1]; 50 to 500 nM in assay [2]; ≤ 50 nM in assay [3]; 50 to 500 nM in assay [4]; ≤ 50 nM in assay [5]; 50 to 500 nM in assay [6].
On to `CCN(c1c(Nc2nc(Nc3cc(N4CCC(O)CC4)ccc3OC)ncc2Cl)ccc2nccnc12)S(C)(=O)=O` [Compound I-377], for which the IC50 in assay [1], in assay [2], in assay [3], in assay [4], in assay [5] and in assay [6] was ≤ 50 nM in each case.
Consider `CCN(c1c(Nc2nc(Nc3cc(N4CCC(O)CC4)ccc3OC)ncc2Br)ccc2nccnc12)S(C)(=O)=O` [Compound I-378], for which the IC50 in assay [1] was ≤ 50 nM; in assay [2], ≤ 50 nM; in assay [3], ≤ 50 nM; in assay [4], 50 to 500 nM; in assay [5], ≤ 50 nM; in assay [6] it was 50 to 500 nM.
Turning to `COc1ccc(N2CCC(O)CC2)cc1Nc1ncc(Cl)c(Nc2ccc3nccnc3c2N(C2CC2)S(C)(=O)=O)n1` [Compound I-379], the IC50 in assay [1], in assay [2], in assay [3], in assay [4], in assay [5] and in assay [6] was ≤ 50 nM in each case.
Turning to `COc1ccc(N2CCC(O)CC2)cc1Nc1ncc(Br)c(Nc2ccc3nccnc3c2N(C2CC2)S(C)(=O)=O)n1` [Compound I-380], the IC50 in assay [1], in assay [2], in assay [3], in assay [4], in assay [5] and in assay [6] was ≤ 50 nM throughout.
As for `CN(c1c(Nc2nc(Nc3cccc(N4CCC(N5CCCC5)CC4)c3)ncc2Br)ccc2nccnc12)S(C)(=O)=O` [Compound I-381], the IC50 in assay [1] is 50 to 500 nM; in assay [2], ≤ 50 nM; in assay [3] it was ≤ 50 nM; in assay [4], 50 to 500 nM; in assay [5], ≤ 50 nM; in assay [6] it was 50 to 500 nM.
With `COc1ccc(N2CCC(N3CCCC3)CC2)cc1Nc1ncc(Br)c(Nc2ccc3nccnc3c2N(C)S(C)(=O)=O)n1` [Compound I-382], the IC50 is 50 to 500 nM in assay [1]; 50 to 500 nM in assay [2]; ≤ 50 nM in assay [3]; 50 to 500 nM in assay [4]; ≤ 50 nM in assay [5]; 50 to 500 nM in assay [6].

Values taken from patent US20230310428A1, “EGFR INHIBITOR AND PREPARATION METHOD AND USE THEREOF” (HONGYUN BIOTECH CO., LTD., priority 2020, published 2023).
